Biological target: T1, P2X7 receptor (Homo sapiens, UniProt Q99572)
T1 construct: host or cells: THP-1 cells differentiated with LPS and IFN-γ
T1 sequence (Q99572 1-595): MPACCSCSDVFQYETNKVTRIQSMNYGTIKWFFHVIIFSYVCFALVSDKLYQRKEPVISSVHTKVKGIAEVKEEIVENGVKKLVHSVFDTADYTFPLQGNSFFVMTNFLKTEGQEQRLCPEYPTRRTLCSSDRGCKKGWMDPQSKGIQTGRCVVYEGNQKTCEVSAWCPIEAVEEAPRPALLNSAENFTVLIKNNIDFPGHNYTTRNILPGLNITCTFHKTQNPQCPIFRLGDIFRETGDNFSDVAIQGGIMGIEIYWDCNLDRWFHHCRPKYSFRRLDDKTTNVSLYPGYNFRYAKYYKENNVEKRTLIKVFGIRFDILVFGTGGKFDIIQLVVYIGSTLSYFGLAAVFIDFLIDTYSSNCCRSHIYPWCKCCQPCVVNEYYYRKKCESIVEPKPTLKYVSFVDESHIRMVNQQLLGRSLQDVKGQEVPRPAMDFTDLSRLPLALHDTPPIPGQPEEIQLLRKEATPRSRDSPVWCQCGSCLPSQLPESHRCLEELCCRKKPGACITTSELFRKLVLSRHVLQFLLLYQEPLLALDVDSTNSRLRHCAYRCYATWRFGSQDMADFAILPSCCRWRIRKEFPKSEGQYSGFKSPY
Experiment: IL-1β release assay in differentiated THP-1 cells stimulated with BzATP (Example 9)
Format: cell-based
Details: 0.1 μM compound (symbols *); differentiated THP-1 cells, BzATP 250 uM; read-out: IL-1β % Inhib. @ 0.3 or 0.1 uM
In short: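 IC50 derived by four-parameter logistic fit of percent inhibition of IL-1β release (ELISA, background-adjusted). Release triggered by 45 min BzATP at 250 uM final after 30 min compound pretreatment of THP-1 cells previously differentiated 16 h (LPS, IFN-γ, 100 ng/mL each) and re-primed 2 h with LPS.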

How did the inhibition at 0.1 µM turn out when `CC(C(=O)Nc1cccc2c(=O)n(CC3(O)CCCCC3)ccc12)c1ccccc1` (stereo not shown) [Compound 24] was run?
The inhibition at 0.1 µM was 26 to 50%.

With `Cc1ccccc1CCC(=O)Nc1cccc2c(=O)n(CC(C)(C)O)ccc12` [Compound 187] as the compound, how does the inhibition at 0.1 µM read?
The inhibition at 0.1 µM was 0 to 25%.

For `CC(O)Cn1ccc2c(NC(=O)Cc3cccc4ccccc34)cccc2c1=O` (stereo not shown) [Compound 151], which inhibition at 0.1 µM is on record?
The inhibition at 0.1 µM was 0 to 25%.

With `O=C(Nc1cccc2c(=O)n(CC3(O)CCCCC3)ccc12)c1ccc(-c2ccccc2)o1` [Compound 9] as the compound, how does the inhibition at 0.1 µM read?
The inhibition at 0.1 µM was 0 to 25%.

`COc1ccc(C(=O)Nc2cccc3c(=O)n(CC(C)O)ccc23)c(C)c1` (stereo not shown) [Compound 125] was tested. Which inhibition at 0.1 µM did it give?
The inhibition at 0.1 µM was 0 to 25%.

How did the inhibition at 0.1 µM turn out when `CC(O)Cn1ccc2c(NC(=O)c3ccc4ccccc4c3)cccc2c1=O` (stereo not shown) [Compound 152] was run?
The inhibition at 0.1 µM was 0 to 25%.

With `CCOc1ccc(C(=O)Nc2cccc3c(=O)n(C(C)CO)ccc23)cc1` (stereo not shown) [Compound 101] as the compound, how does the inhibition at 0.1 µM read?
Its inhibition at 0.1 µM is 0 to 25%.

Which inhibition at 0.1 µM does the source give for `Cc1ccccc1CCC(=O)Nc1cccc2c(=O)n(CC(C)O)ccc12` (stereo not shown) [Compound 126] here?
Its inhibition at 0.1 µM is 26 to 50%.

`Cc1cc(C)cc(CC(=O)Nc2cccc3c(=O)n(C(C)CO)ccc23)c1` (stereo not shown) [Compound 119] was tested. Which inhibition at 0.1 µM did it give?
Its inhibition at 0.1 µM is 0 to 25%.

Which inhibition at 0.1 µM does the source give for `CC(CO)n1ccc2c(NC(=O)c3cccc4ccccc34)cccc2c1=O` (stereo not shown) [Compound 106] here?
Its inhibition at 0.1 µM is 0 to 25%.

For `CC(CO)n1ccc2c(NC(=O)c3cc4ccccc4o3)cccc2c1=O` (stereo not shown) [Compound 112], which inhibition at 0.1 µM is on record?
Its inhibition at 0.1 µM is 0 to 25%.

Which inhibition at 0.1 µM does the source give for `Cc1ccc(C(=O)Nc2cccc3c(=O)n(CC(C)O)ccc23)c(C)c1` (stereo not shown) [Compound 141] here?
Its inhibition at 0.1 µM is 0 to 25%.

For `Cc1cc(C)cc(CC(=O)Nc2cccc3c(=O)n(CC(C)O)ccc23)c1` (stereo not shown) [Compound 173], which inhibition at 0.1 µM is on record?
Its inhibition at 0.1 µM is 26 to 50%.

How did the inhibition at 0.1 µM turn out when `COc1ccc(C(=O)Nc2cccc3c(=O)n(CC4(O)CCCCC4)ccc23)c(C)c1` [Compound 83] was run?
The inhibition at 0.1 µM was 0 to 25%.

`CC(O)Cn1ccc2c(NC(=O)c3ccc(Cl)cc3Cl)cccc2c1=O` (stereo not shown) [Compound 137] was tested. Which inhibition at 0.1 µM did it give?
The inhibition at 0.1 µM was 0 to 25%.

With `COc1cccc(CC(=O)Nc2cccc3c(=O)n(CC(C)O)ccc23)c1` (stereo not shown) [Compound 158] as the compound, how does the inhibition at 0.1 µM read?
Its inhibition at 0.1 µM is 0 to 25%.

Same assay, conditions: 0.1 μM compound; differentiated THP-1 cells, BzATP 250 uM; "*" symbols; read-out: IL-1β % Inhib. @ 0.3 or 0.1 uM

For `CC(C)(O)Cn1ccc2c(NC(=O)c3cccc4ccccc34)cccc2c1=O` [Compound 204], which inhibition at 0.1 µM is on record?
The inhibition at 0.1 µM was 0 to 25%.

How did the inhibition at 0.1 µM turn out when `CC(C)(O)Cn1ccc2c(NC(=O)Cc3ccc4c(c3)OCO4)cccc2c1=O` [Compound 218] was run?
Its inhibition at 0.1 µM is 0 to 25%.

Same assay, conditions: 0.3 μM compound (symbols +); differentiated THP-1 cells, BzATP 250 uM; read-out: IL-1β % Inhib. @ 0.3 or 0.1 uM

For `COc1ccc(C(=O)Nc2cccc3c(=O)n(C(CO)CO)ccc23)c(OC)c1` [Compound 5], which inhibition at 0.3 µM is on record?
Its inhibition at 0.3 µM is 0 to 25%.

How did the inhibition at 0.3 µM turn out when `COc1ccc(OC)c(CC(=O)Nc2cccc3c(=O)n(CC4(O)CCCCC4)ccc23)c1` [Compound 30] was run?
Its inhibition at 0.3 µM is 0 to 25%.

For `O=C(CCc1cccc(Cl)c1)Nc1cccc2c(=O)n(CC3(O)CCCCC3)ccc12` [Compound 58], which inhibition at 0.3 µM is on record?
Its inhibition at 0.3 µM is 26 to 50%.

With `O=C(Cc1cc(Cl)ccc1C(F)(F)F)Nc1cccc2c(=O)n(CCO)ccc12` [Compound 68] as the compound, how does the inhibition at 0.3 µM read?
Its inhibition at 0.3 µM is 26 to 50%.

How did the inhibition at 0.3 µM turn out when `O=C(CCc1ccc(Cl)cc1)Nc1cccc2c(=O)n(CC3(O)CCCCC3)ccc12` [Compound 49] was run?
The inhibition at 0.3 µM was 0 to 25%.

For `O=C(Cc1cc(C(F)(F)F)ccc1Cl)Nc1cccc2c(=O)n(CCO)ccc12` [Compound 67], which inhibition at 0.3 µM is on record?
The inhibition at 0.3 µM was 0 to 25%.

Same assay, conditions: 0.3 μM compound; differentiated THP-1 cells, BzATP 250 uM; "+" symbols; read-out: IL-1β % Inhib. @ 0.3 or 0.1 uM

How did the inhibition at 0.3 µM turn out when `CC(C)(CO)n1ccc2c(NC(=O)Cc3ccc(F)c(Cl)c3)cccc2c1=O` [Compound 372] was run?
Its inhibition at 0.3 µM is 0 to 25%.

With `C[C@H](C(=O)Nc1cccc2c(=O)n([C@@H](C(N)=O)c3ccccc3)ccc12)c1ccc(Cl)cc1` [Compound 279, (S)—N-[2-((R)-Carbamoyl-phenyl-methyl)-1-oxo-1,2-dihydro-isoquinolin-5-yl]-2-(4-chloro-phenyl)-propionamide] as the compound, how does the inhibition at 0.3 µM read?
Its inhibition at 0.3 µM is > 76%.

How did the inhibition at 0.3 µM turn out when `C[C@H](C(=O)Nc1cccc2c(=O)n([C@H](C)CO)ccc12)c1ccc(Cl)c(Cl)c1` [Compound 321] was run?
The inhibition at 0.3 µM was > 76%.

`C[C@H](C(=O)Nc1cccc2c(=O)n([C@@H](C)CO)ccc12)c1ccc(Cl)c(Cl)c1` [Compound 326] was tested. Which inhibition at 0.3 µM did it give?
Its inhibition at 0.3 µM is 51 to 75%.

`O=C(Cc1ccc(F)c(Cl)c1)Nc1cccc2c(=O)n(CCO)ccc12` [Compound 341] was tested. Which inhibition at 0.3 µM did it give?
Its inhibition at 0.3 µM is > 76%.

For `CC(C(=O)Nc1cccc2c(=O)n([C@H](C)C(N)=O)ccc12)c1ccc(F)cc1` (stereo partly shown) [Compound 299], which inhibition at 0.3 µM is on record?
Its inhibition at 0.3 µM is > 76%.

For `C[C@H](C(N)=O)n1ccc2c(NC(=O)Cc3cccc(Cl)c3)cccc2c1=O` [Compound 255], which inhibition at 0.3 µM is on record?
Its inhibition at 0.3 µM is > 76%.
